# Results reported in patent US8748460B2, “Iminosugars and methods of treating togaviral diseases” (priority 2009, dated 2014).
# Experiments:
# [1] = test system: Chikungunya (Togaviridae) 181/25 strain; format: cell-based; conditions: read-out: EC50, Chikungunya virus inhibition
# [2] = test system: Rift Valley Fever Virus (Bunyavirus) MP12 strain; format: cell-based; conditions: read-out: EC50, RVFV MP12 virus inhibition
# [3] = test system: Venezuelan Equine Encephalitis (Togaviridae) TC-83 strain; format: cell-based, Venezuelan equine encephalitis virus; conditions: read-out: EC50, VEE virus inhibition
# [4] = test system: Vero cells
SMILES,EC50 [1] [µM],EC50 [2] [µM],EC50 [3] [µM],toxicity at the highest concentration [4],toxicity to cells at the highest concentration [4]
"[N-]=[N+]=Nc1ccc(NCCCCCCN2C[C@H](O)[C@@H](O)[C@H](O)[C@H]2CO)c([N+](=O)[O-])c1 [UV-5, N—(N-{4′-azido-2′-nitrophenyl}-6-aminohexyl)deoxynojirimycin]",22,49,2,–,–
"CCCCCCCCCN1C[C@H](O)[C@@H](O)[C@H](O)[C@H]1CO [UV-2, N-Nonyl dexoynojirimycin]",56,58,12,toxic,toxic
"CCCCN1C[C@H](O)[C@@H](O)[C@H](O)[C@H]1CO [UV-1, N-Butyl deoxynojirimycin]",–,–,156,–,–
"CCCOCCCCCCN1C[C@H](O)[C@@H](O)[C@H](O)[C@H]1CO [UV-3, N-(7-Oxadecyl)deoxynojirimycin]",–,218,–,–,–
